# Results: ChEMBL document CHEMBL1123292, “Synthesis and antimitogenic activities of four analogues of cyclosporin A modified in the 1-position” (J Med Chem, 1986)
# Assays:
# [1] = inhibitory concentration against Con A stimulated thymocytes; type: functional
# [2] = Inhibitory concentration against Con A stimulated thymocytes; type: functional
IC50 [1] [µM],IC50 [2] [µM],SMILES
8,,CC[C@@H]1NC(=O)[C@H]([C@@H](C)O)N(C)C(=O)[C@H](C(C)C)N(C)C(=O)[C@H](CC(C)C)N(C)C(=O)[C@H](CC(C)C)N(C)C(=O)[C@@H](C)NC(=O)[C@H](C)NC(=O)[C@H](CC(C)C)N(C)C(=O)[C@H](C(C)C)NC(=O)[C@H](CC(C)C)N(C)C(=O)CN(C)C1=O
,15,CC[C@@H]1NC(=O)[C@H](CC)N(C)C(=O)[C@H](C(C)C)N(C)C(=O)[C@H](CC(C)C)N(C)C(=O)[C@H](CC(C)C)N(C)C(=O)[C@@H](C)NC(=O)[C@H](C)NC(=O)[C@H](CC(C)C)N(C)C(=O)[C@H](C(C)C)NC(=O)[C@H](CC(C)C)N(C)C(=O)CN(C)C1=O
,0.6,CC[C@@H]1NC(=O)[C@H]([C@H](O)C(C)C)N(C)C(=O)[C@H](C(C)C)N(C)C(=O)[C@H](CC(C)C)N(C)C(=O)[C@H](CC(C)C)N(C)C(=O)[C@@H](C)NC(=O)[C@H](C)NC(=O)[C@H](CC(C)C)N(C)C(=O)[C@H](C(C)C)NC(=O)[C@H](CC(C)C)N(C)C(=O)CN(C)C1=O

SMILES,IC50 [1] [µM],IC50 [2] [µM]
CCCCC(C)[C@@H](O)[C@H]1C(=O)N[C@@H](CC)C(=O)N(C)CC(=O)N(C)[C@@H](CC(C)C)C(=O)N[C@@H](C(C)C)C(=O)N(C)[C@@H](CC(C)C)C(=O)N[C@@H](C)C(=O)N[C@H](C)C(=O)N(C)[C@@H](CC(C)C)C(=O)N(C)[C@@H](CC(C)C)C(=O)N(C)[C@@H](C(C)C)C(=O)N1C (some centres undefined),,0.01
